In US20180104223A1, “TREATMENT OF PAIN” (PROXIMAGEN LIMITED, priority 2015, published 2018):

Key:
[1] = test system: CFA (Complete Freunds Adjuvant) Induced Hypersensitivity in Rat; assay: CFA induced hypersensitivity in rat, weight bearing (incapacitance tester); format: in vivo, rat (male Sprague Dawley)
Method: (3S)-Tetrahydrofuran-3-yl (4S)-4-isopropyl-1,4,6,7-tetrahydro-5H-imidazo[4,5-c]-pyridine-5-carboxylate was investigated (FIG. 1) in the CFA thermal hyperalgesia model, which is an established model for inflammatory pain. […] In more detail:
(§1) Assessment of the anti-hyperalgesic properties of (3S)-tetrahydrofuran-3-yl (4S)-4-isopropyl-1,4,6,7-tetrahydro-5H-imidazo[4,5-c]pyridine-5-carboxylate mesylate salt was determined through measurement of weight bearing following CFA induced hypersensitivity. Naive rats distribute their body weight equally between the two hind paws. However, when the injected (left) hind paw is painful, the weight is re-distributed so that less weight is put on the affected paw (decrease in weight bearing on injured paw). Weight bearing through each hind limb was measured using a rat incapacitance tester (Linton Instruments, UK). Rats were placed in the incapacitance tester with the hind paws on separate sensors and the average force exerted by both hind limbs was recorded over 4 seconds. The injection of CFA also induces an oedema that can be assessed by paw volume; this is measured using a plethysmometer. The rat's hind paw is placed into the cylinder containing a solution and the volume of displaced liquid determines the paw volume.
Naive male, Sprague Dawley rats were acclimatised with food and water available ad libitum. Habituation to the incapacitance tester was performed. Baseline weight bearing and paw volume recordings were taken prior to induction of insult. Inflammatory hypersensitivity was induced by intraplantar injection of CFA (100 ul of 1 mg/ml solution) into the left hind paw. A pre-treatment weight bearing and paw volume measurement was taken to assess hypersensitivity 23 hours post-CFA. Animals were then ranked and randomised according to CFA window in a Latin square design. (3S)-Tetrahydrofuran-3-yl (4S)-4-isopropyl-1,4,6,7-tetrahydro-5H-imidazo[4,5-c]pyridine-5-carboxylate mesylate salt was then given at 150, 250 and 500 mg/kg p.o. (dosed in water at 2 mL/Kg, pH ˜5-6), alongside vehicle and reference group (indomethacin), n=9-10 per group. Weight bearing was assessed in all groups 1, 2 and 4 hours post compound administration. Paw volume was assessed 4 hours post compound administration. Data was analysed by comparing treatment groups to control group at each time point.
Weight bearing (g) readings were taken for both right and left hind paws and the difference calculated. Data is expressed as % reversal of the hypersensitivity to pain, (post dose reading−pre dose reading)/(naïve reading−pre dose reading)×100, where naive weight bearing difference−pre dose weight bearing difference is defined as the CFA window to be reversed. Statistical analysis was conducted by means of repeated measures ANOVA followed by Planned comparison test using InVivoStat (invivostat.co.uk), (p<0.05 considered significant).

[2] = test system: CFA induced oedema, hind paw; assay: CFA induced oedema in rat, paw volume (plethysmometer); format: in vivo, rat (male Sprague Dawley); details: 150, 250 and 500 mg/kg p.o., 4 hours post compound administration
Method: as §1
Naive male, Sprague Dawley rats were acclimatised with food and water available ad libitum. […] Weight bearing was assessed in all groups 1, 2 and 4 hours post compound administration. Paw volume was assessed 4 hours post compound administration. Data was analysed by comparing treatment groups to control group at each time point.

Row | Structure (SMILES) | reversal of hypersensitivity (weight bearing) ([1]; 150 mg/kg p.o., rat, 1, 2 and 4 hours post dose) | reversal of hypersensitivity (weight bearing) ([1]; 250 mg/kg p.o., rat, 4 hours post dose) | reversal of hypersensitivity (weight bearing) ([1]; 500 mg/kg p.o., rat, 1, 2 and 4 hours post dose) | time of maximum effect on hypersensitivity ([1]; 500 mg/kg p.o., rat, post dose) | effect on paw volume [2] | efficacy compared with benchmark indomethacin in the CFA thermal hyperalgesia model ([1]; FIG. 1, summary statement) | efficacy in the CFA thermal hyperalgesia model (inflammatory pain) ([1]; FIG. 1, summary statement)
1 | CC(C)[C@H]1c2nc[nH]c2CCN1C(=O)O[C@H]1CCOC1.CS(=O)(=O)O [(3S)-Tetrahydrofuran-3-yl (4S)-4-isopropyl-1,4,6,7-tetrahydro-5H-imidazo[4,5-c]pyridine-5-carboxylate, Methananesulfonic Acid Salt] | no significant reversal of hypersensitivity at any time point | significant reversal | effective at all time points | 4 h | No effect |  | 
2 | CC(C)[C@H]1c2[nH]cnc2CCN1C(=O)O[C@H]1CCOC1 [(3S)-Tetrahydrofuran-3-yl (4S)-4-isopropyl-1,4,6,7-tetrahydro-5H-imidazo[4,5-c]pyridine-5-carboxylate] |  |  |  |  |  | comparably in efficacy to the gold standard benchmark indomethacin | effective in a dose-dependent manner
